This is an account of results in PubChem BioAssay (NCI).

Test systems include MDA-N; MDA-MB-435; DU-145 prostate; HS 578T breast; MCF7 breast; 786-0 renal; MDA-MB-231 breast; NCI/ADR-RES ovarian; PC-3 prostate; T-47D breast; BT-549 breast; SNB-78 CNS; DMS 114 small cell lung; DLD-1 colon; M19-MEL melanoma; DMS 273 small cell lung; LXFL 529 NSCLC; XF 498 CNS.
Holding throughout (assay): inhibition of tumour cell growth, NCI panel, 48 h

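Where inhibition never reached the appropriate level, the endpoint shown equals the highest concentration tested. Otherwise, values were interpolated linearly from a five-concentration, 48-hour dose response in 96-well plates. GI50 is the concentration that inhibits growth by half. TGI: concentration producing complete growth inhibition.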 Where a SMILES comes first, the peptide text is derived from it. [ ]: non-standard residue; d: D form. ξ: configuration not given here. ξLac(3-iPr) = CC(C)CC(O)C(=O)O; NMeV = CN[CH](C(=O)O)C(C)C; NMeA = CN[CH](C)C(=O)O; βAla = NCCC(=O)O

Take `CC(NC(=O)c1ccc(NP(=O)(OCc2ccc([N+](=O)[O-])o2)N(C)CCCCCl)cc1)c1ccc(OCC2CCCCC2)c(C(N)=O)c1` (centres undefined): the TGI in the experiment on MDA-N is 62.4 µM; in the experiment with MDA-MB-435, 33.6 µM; in the experiment on DU-145 prostate, greater than 100 µM; in the experiment with HS 578T breast, 42.9 µM; with MCF7 breast, 18.3 µM; in the experiment on 786-0 renal, 45.9 µM. Further, the TGI in the experiment on MDA-MB-231 breast was 35 µM; in the experiment with NCI/ADR-RES ovarian it was greater than 100 µM; in the experiment on PC-3 prostate, greater than 100 µM; in the experiment with T-47D breast, 25.5 µM.

In the case of `CO/N=C\c1cc(O)c(O)c(/C=N/OC)c1`, the TGI in the experiment on MDA-N is greater than 100 µM; in the experiment with MDA-MB-435, greater than 100 µM; in the experiment on DU-145 prostate, greater than 100 µM; with HS 578T breast, 71.1 µM; in the experiment with BT-549 breast, greater than 100 µM; in the experiment on MCF7 breast, 94.8 µM. Moreover, the TGI in the experiment with MDA-MB-231 breast, in the experiment on NCI/ADR-RES ovarian, in the experiment on PC-3 prostate and in the experiment with T-47D breast was greater than 100 µM throughout.

On to `CCC(C)C1NC(=O)C2CCCN2C(=O)C(CC(C)C)OC(=O)CCNC(=O)C(C)N(C)C(=O)C(C(C)C)N(C)C1=O` (centres undefined) (cyclo([ξLac(3-iPr)]PI[NMeV][NMeA][βAla]); configuration not given here), for which the TGI was 17.3 µM in the experiment with MDA-N; 13.5 µM in the experiment with MDA-MB-435; greater than 89.2 µM in the experiment with DU-145 prostate; greater than 96.3 µM with HS 578T breast; greater than 100 µM with BT-549 breast; greater than 26.7 µM in the experiment with MCF7 breast. For the same compound, the TGI in the experiment on 786-0 renal is 17.6 µM; in the experiment with MDA-MB-231 breast it was greater than 100 µM; in the experiment on NCI/ADR-RES ovarian it was greater than 86.9 µM; in the experiment on PC-3 prostate, greater than 100 µM; with T-47D breast, 38.9 µM.

For `O=C1c2ccccc2C(=O)c2c(Nc3cc4c5c(ccc6c7ccc8c9c(cc(Nc%10cccc%11c%10C(=O)c%10ccccc%10C%11=O)c(c3c56)c97)-c3ccccc3C8=O)C(=O)c3ccccc3-4)cccc21`, the TGI in the experiment with MDA-N was greater than 100 µM; in the experiment with MDA-MB-435, greater than 100 µM; with DU-145 prostate, greater than 100 µM; with HS 578T breast it was 61.1 µM; in the experiment on BT-549 breast, greater than 100 µM; with MCF7 breast, greater than 100 µM. In addition, the TGI with 786-0 renal, with MDA-MB-231 breast, with NCI/ADR-RES ovarian, in the experiment with PC-3 prostate and with T-47D breast was greater than 100 µM each time.

Consider `Cc1ccc(C2COc3cc(O)c(O)cc3C2)cc1` (centres undefined), for which the TGI with SNB-78 CNS worked out at 221 µM; with DMS 114 small cell lung it was 37 µM; in the experiment on MCF7 breast it was 114 µM; in the experiment with NCI/ADR-RES ovarian, 40.8 µM; in the experiment on DLD-1 colon it was 105 µM; in the experiment on M19-MEL melanoma it was 66.1 µM. This compound came in with a TGI in the experiment with DMS 273 small cell lung of 78.1 µM.

Take `O=C(c1ccccc1)c1nc2ccc(Cl)cc2c2c1CCCO2`: the TGI in the experiment on SNB-78 CNS, with DMS 114 small cell lung, in the experiment on LXFL 529 NSCLC, in the experiment on XF 498 CNS, in the experiment with M19-MEL melanoma and with DMS 273 small cell lung was greater than 100 µM each time.

For `O=C1C=CC(=O)c2c(O)c(Br)c(Br)c(O)c21`, the TGI in the experiment on MDA-N was 5.67 µM; in the experiment on MDA-MB-435, 8.19 µM; in the experiment with DU-145 prostate it was 25.9 µM; with HS 578T breast, 69.1 µM; with BT-549 breast, 27.1 µM; with MCF7 breast, 5.48 µM. For the same compound, the TGI with 786-0 renal was 3.32 µM; in the experiment with MDA-MB-231 breast it was 7.43 µM; in the experiment on NCI/ADR-RES ovarian it was 58.7 µM; in the experiment on PC-3 prostate, 29.6 µM; in the experiment with T-47D breast, 6.04 µM.

Turning to `COc1cc(C(=O)CC2OC(=O)C(Cl)=C2Cl)ccc1Cl` (centres undefined), the TGI with SNB-78 CNS, with DMS 114 small cell lung, in the experiment with LXFL 529 NSCLC, with XF 498 CNS, in the experiment with DLD-1 colon and in the experiment with M19-MEL melanoma was greater than 100 µM throughout. In addition, the TGI in the experiment with DMS 273 small cell lung was greater than 100 µM.

On to `O=C(c1ccccc1)C1C(c2ccccc2)N1S(=O)(=O)c1ccccc1` (centres undefined), for which the TGI in the experiment on MDA-N, with MDA-MB-435, in the experiment with DU-145 prostate, with HS 578T breast, in the experiment on BT-549 breast and in the experiment on MCF7 breast was greater than 100 µM in each case. For the same compound, the TGI in the experiment on MDA-MB-231 breast, in the experiment on NCI/ADR-RES ovarian, in the experiment on PC-3 prostate and in the experiment with T-47D breast was greater than 100 µM each time.

As for `Cc1ccc2c(ccc(/C=C\c3cc(C)c4cccnc4c3O)[n+]2C)c1`, the TGI in the experiment on DMS 114 small cell lung was 7.54 µM; in the experiment on LXFL 529 NSCLC, 18.9 µM; with 786-0 renal it was greater than 100 µM; with DLD-1 colon it was 4.36 µM; in the experiment on DMS 273 small cell lung it was 21.4 µM.

With `OCc1cc2ccncc2c2c1[nH]c1ccccc12`, the TGI in the experiment on SNB-78 CNS is 63.1 µM; in the experiment on DMS 114 small cell lung it was 23.1 µM; with LXFL 529 NSCLC, 22 µM; in the experiment on XF 498 CNS, 19.7 µM; in the experiment on DLD-1 colon, greater than 100 µM; with DMS 273 small cell lung it was 16.5 µM.

Take `CC1(C)N=C(N)N=C(N)N1c1cccc(C(=O)Nc2ccc(S(=O)(=O)F)cc2)c1`: the TGI in the experiment on MDA-N, in the experiment on MDA-MB-435, with DU-145 prostate, in the experiment with HS 578T breast, in the experiment with BT-549 breast and with MCF7 breast was greater than 100 µM in each case. Further, the TGI in the experiment with 786-0 renal, in the experiment on MDA-MB-231 breast, with NCI/ADR-RES ovarian, in the experiment with PC-3 prostate and with T-47D breast was greater than 100 µM throughout.

Regarding `CCN(CC)c1ccc2nc3ccc(N=Nc4c(O)ccc5ccccc45)cc3[n+](-c3ccccc3)c2c1`, the TGI with MDA-N, in the experiment with MDA-MB-435, with DU-145 prostate, with HS 578T breast, in the experiment with BT-549 breast and with 786-0 renal was greater than 100 µM throughout. Also, the TGI in the experiment on MDA-MB-231 breast, with NCI/ADR-RES ovarian, in the experiment on PC-3 prostate and with T-47D breast was greater than 100 µM each time.

Regarding `C[N+](C)(C)c1cc2c(nn1)Nc1ccccc1S2`, the TGI with MDA-N was 50.3 µM; with MDA-MB-435, 51.9 µM; in the experiment on DU-145 prostate, greater than 100 µM; with HS 578T breast it was greater than 100 µM; in the experiment on BT-549 breast, greater than 100 µM; in the experiment on MCF7 breast, greater than 100 µM. The TGI was greater than 100 µM in the experiment on 786-0 renal; 67 µM in the experiment with MDA-MB-231 breast; 56.9 µM in the experiment with NCI/ADR-RES ovarian; 47.9 µM in the experiment on PC-3 prostate; 28.2 µM with T-47D breast.

`CN=C(N)c1ccc(N=C(N)c2ccc(C(N)=Nc3ccc(C(N)=NC)cc3)cc2)cc1`: the TGI with DMS 114 small cell lung, with LXFL 529 NSCLC, in the experiment on 786-0 renal, with M19-MEL melanoma and with DMS 273 small cell lung was greater than 100 µM in each case.

With `Clc1ccc(C[P+]2(c3ccccc3)CCCCC2)cc1`, the TGI in the experiment on SNB-78 CNS was greater than 100 µM; in the experiment with DMS 114 small cell lung, greater than 100 µM; in the experiment on LXFL 529 NSCLC it was greater than 100 µM; in the experiment with 786-0 renal it was greater than 100 µM; in the experiment with XF 498 CNS it was 86.7 µM; with DLD-1 colon it was greater than 100 µM. Also, the TGI in the experiment on M19-MEL melanoma and in the experiment with DMS 273 small cell lung was greater than 100 µM throughout.

Consider `C[C@]12CC[C@@H]3c4ccc(O)cc4CC[C@H]3[C@@H]1CC[C@@H]2OC(=O)CCc1ccccc1`, for which the TGI in the experiment with MDA-N came out at 52.9 µM; with MDA-MB-435 it was 45.1 µM; with DU-145 prostate, 43 µM; with HS 578T breast, 17.9 µM; with BT-549 breast it was 34.2 µM; with MCF7 breast it was 37.7 µM. The TGI in the experiment on 786-0 renal is greater than 100 µM; in the experiment on MDA-MB-231 breast it was 33.4 µM; in the experiment on NCI/ADR-RES ovarian it was 33.8 µM; with PC-3 prostate, 34.4 µM; in the experiment on T-47D breast it was 37 µM.

Regarding `N#C/C(=C\c1ccc(Br)cc1)n1nnc2cc(Cl)c(Cl)cc21`, in the experiment with MCF7 breast, the GI50 is 1.51 µM and the TGI was greater than 100 µM. In the experiment with MDA-MB-231 breast, the GI50 was 2.31 µM and the TGI was 8 µM.
